In patent US20230081426A1, “COMPOUNDS AND METHODS FOR KRAS MODULATION AND INDICATIONS THEREFOR” (Plexxikon Inc., priority 2020, published 2023):

Assays:
[1] = molecular target: T1, G12D-mutant human KRAS (amino acid residues 1-188) (Homo sapiens, UniProt P01116, G12D); assay: KRAS Binding Disruption Assay (AlphaScreen; biotinylated KRpep-2d analogue or RAF1-RBD), G12D; conditions: KRAS G12D; geometric mean; read-out: KRAS GMean IC50 (uM) MUTATION: G12D
T1 construct: G12D or G12C-mutant human KRAS (amino acid residues 1-188) with FLAG tag; made in house; host or cells: E. coli
In short: (§1)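 Mutant KRAS (5-20 nM) incubated 1 h at 25° C with test compound and 5-20 nM biotinylated KRpep-2d analogue or RAF1-RBD in 20 mM HEPES pH 7.5, 100 mM NaCl, 5 mM MgCl2, 0.01% Tween-20, 0.01% BSA.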

[2] = molecular target: T2, G12C-mutant human KRAS (amino acid residues 1-188) (Homo sapiens, UniProt P01116, G12C); assay: KRAS Binding Disruption Assay (AlphaScreen; biotinylated KRpep-2d analogue or RAF1-RBD), G12C; conditions: geometric mean, read-out: KRAS GMean IC50 (uM) MUTATION: G12C
T2 construct: G12D or G12C-mutant human KRAS (amino acid residues 1-188) with FLAG tag; made in house; host or cells: E. coli
In short: as §1

T2 sequence (P01116 1-188 isoform P01116-2 G12C): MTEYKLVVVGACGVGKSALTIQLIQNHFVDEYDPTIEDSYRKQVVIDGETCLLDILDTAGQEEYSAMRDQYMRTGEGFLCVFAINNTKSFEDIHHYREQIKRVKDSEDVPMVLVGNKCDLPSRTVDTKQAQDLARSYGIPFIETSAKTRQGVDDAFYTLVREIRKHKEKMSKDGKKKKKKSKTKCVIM
T1 sequence (P01116 1-188 isoform P01116-2 G12D): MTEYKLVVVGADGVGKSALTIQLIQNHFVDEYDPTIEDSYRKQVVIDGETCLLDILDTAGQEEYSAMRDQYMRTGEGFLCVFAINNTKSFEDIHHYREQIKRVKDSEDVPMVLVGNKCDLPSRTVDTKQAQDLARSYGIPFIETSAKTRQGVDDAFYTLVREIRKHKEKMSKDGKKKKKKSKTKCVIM

| SMILES | IC50 [1] | IC50 [2] |
| --- | --- | --- |
| Oc1cc(-c2ccc3c(N4C[C@H]5CC[C@@H](C4)N5)nc(OCCn4cccc4)nc3c2F)c2ccccc2c1 [P-0691, 4-(2-(2-(1H-pyrrol-1-yl)ethoxy)-4-((1R,5S)-3,8-diazabicyclo[3.2.1]octan-3-yl)-8-fluoroquinazolin-7-yl)naphthalen-2-ol] | 0.0001 to 10 µM | 10 to 100 µM |
| CC(=O)NCCOc1nc(N2C[C@H]3CC[C@@H](C2)N3)c2ccc(-c3cc(O)cc4ccccc34)c(F)c2n1 [P-0692, N-(2-((4-((1R,5S)-3,8-diazabicyclo[3.2.1]octan-3-yl)-8-fluoro-7-(3-hydroxynaphthalen-1-yl)quinazolin-2-yl)oxy)ethyl)acetamide] | 0.0001 to 10 µM | 10 to 100 µM |
| O=C1CCCN1CCOc1nc(N2C[C@H]3CC[C@@H](C2)N3)c2ccc(-c3cc(O)cc4ccccc34)c(F)c2n1 [P-0693, 1-(2-((4-((1R,5S)-3,8-diazabicyclo[3.2.1]octan-3-yl)-8-fluoro-7-(3-hydroxynaphthalen-1-yl)quinazolin-2-yl)oxy)ethyl)pyrrolidin-2-one] | 0.0001 to 10 µM | 10 to 100 µM |
| O=C1CCC(=O)N1CCOc1nc(N2C[C@H]3CC[C@@H](C2)N3)c2ccc(-c3cc(O)cc4ccccc34)c(F)c2n1 [P-0694, 1-(2-((4-((1R,5S)-3,8-diazabicyclo[3.2.1]octan-3-yl)-8-fluoro-7-(3-hydroxynaphthalen-1-yl)quinazolin-2-yl)oxy)ethyl)pyrrolidine-2,5-dione] | 0.0001 to 10 µM | 10 to 100 µM |
| Oc1cc(-c2ccc3c(N4C[C@H]5CC[C@@H](C4)N5)nc(OCCN4CCOCC4)nc3c2F)c2ccccc2c1 [P-0695, 4-(4-((1R,5S)-3,8-diazabicyclo[3.2.1]octan-3-yl)-8-fluoro-2-(2-morpholinoethoxy)quinazolin-7-yl)naphthalen-2-ol] | 0.0001 to 10 µM | 10 to 100 µM |
| Oc1cc(-c2ccc3c(N4C[C@H]5CC[C@@H](C4)N5)nc(OCCN4CCCC4)nc3c2F)c2ccccc2c1 [P-0696, 4-(4-((1R,5S)-3,8-diazabicyclo[3.2.1]octan-3-yl)-8-fluoro-2-(2-(pyrrolidin-1-yl)ethoxy)quinazolin-7-yl)naphthalen-2-ol] | 0.0001 to 10 µM | 10 to 100 µM |
| Fc1c(-c2c[nH]c3cccc(C4CC4)c23)ccc2c(N3C[C@H]4CC[C@@H](C3)N4)nc(OCC34CCCN3CCC4)nc12 [P-0697, 4-((1R,5S)-3,8-diazabicyclo[3.2.1]octan-3-yl)-7-(4-cyclopropyl-1H-indol-3-yl)-8-fluoro-2-((tetrahydro-1H-pyrrolizin-7a(5H)-yl)methoxy)quinazoline] | 0.0001 to 10 µM | 0.0001 to 10 µM |
| CCc1cccc2[nH]cc(-c3ccc4c(N5C[C@H]6CC[C@@H](C5)N6)nc(OCC56CCCN5CCC6)nc4c3)c12 [P-0698, 4-((1R,5S)-3,8-diazabicyclo[3.2.1]octan-3-yl)-7-(4-ethyl-1H-indol-3-yl)-2-((tetrahydro-1H-pyrrolizin-7a(5H)-yl)methoxy)quinazoline] | 0.0001 to 10 µM | 10 to 100 µM |
| CCc1cccc2[nH]cc(-c3ccc4c(N5C[C@H]6CC[C@@H](C5)N6)nc(OCC56CCCN5CCC6)nc4c3F)c12 [P-0699, 4-((1R,5S)-3,8-diazabicyclo[3.2.1]octan-3-yl)-7-(4-ethyl-1H-indol-3-yl)-8-fluoro-2-((tetrahydro-1H-pyrrolizin-7a(5H)-yl)methoxy)quinazoline] | 0.0001 to 10 µM | 0.0001 to 10 µM |
| Clc1cccc2[nH]cc(-c3ccc4c(N5C[C@H]6CC[C@@H](C5)N6)nc(OCC56CCCN5CCC6)nc4c3)c12 [P-0700, 4-((1R,5S)-3,8-diazabicyclo[3.2.1]octan-3-yl)-7-(4-chloro-1H-indol-3-yl)-2-((tetrahydro-1H-pyrrolizin-7a(5H)-yl)methoxy)quinazoline] | 0.0001 to 10 µM | 10 to 100 µM |
| Oc1cc(-c2ccc3c(N4C[C@H]5CC[C@@H](C4)N5)nc(NCC4CCOCC4)nc3c2F)c2ccccc2c1 [P-0701, 4-(4-((1R,5S)-3,8-diazabicyclo[3.2.1]octan-3-yl)-8-fluoro-2-(((tetrahydro-2H-pyran-4-yl)methyl)amino)quinazolin-7-yl)naphthalen-2-ol] | 0.0001 to 10 µM | 100 to 1000 µM |
| CS(=O)(=O)NC1CN(c2nc(N3C[C@H]4CC[C@@H](C3)N4)c3ccc(-c4cc(O)cc5ccccc45)c(F)c3n2)C1 [P-0702, N-(1-(4-((1R,5S)-3,8-diazabicyclo[3.2.1]octan-3-yl)-8-fluoro-7-(3-hydroxynaphthalen-1-yl)quinazolin-2-yl)azetidin-3-yl)methanesulfonamide] | 0.0001 to 10 µM | 10 to 100 µM |
| Oc1cc(-c2ccc3c(N4C[C@H]5CC[C@@H](C4)N5)nc(N4CC(N5CCOCC5)C4)nc3c2F)c2ccccc2c1 [P-0703, 4-(4-((1R,5S)-3,8-diazabicyclo[3.2.1]octan-3-yl)-8-fluoro-2-(3-morpholinoazetidin-1-yl)quinazolin-7-yl)naphthalen-2-ol] | 0.0001 to 10 µM | 10 to 100 µM |
| CN(C)C1CCN(c2nc(N3C[C@H]4CC[C@@H](C3)N4)c3ccc(-c4cc(O)cc5ccccc45)c(F)c3n2)C1 (stereo partly drawn) [P-0704, 4-(4-((1R,5S)-3,8-diazabicyclo[3.2.1]octan-3-yl)-2-(3-(dimethylamino)pyrrolidin-1-yl)-8-fluoroquinazolin-7-yl)naphthalen-2-ol] | 0.0001 to 10 µM | 10 to 100 µM |
| CN1CCC2CN(c3nc(N4C[C@H]5CC[C@@H](C4)N5)c4ccc(-c5cc(O)cc6ccccc56)c(F)c4n3)CC21 (stereo partly drawn) [P-0705, 4-(4-((1R,5S)-3,8-diazabicyclo[3.2.1]octan-3-yl)-8-fluoro-2-(1-methylhexahydropyrrolo[3,4-b]pyrrol-5(1H)-yl)quinazolin-7-yl)naphthalen-2-ol] | 0.0001 to 10 µM | 10 to 100 µM |
| Oc1cc(-c2ccc3c(N4C[C@H]5CC[C@@H](C4)N5)nc(N4CC(O)(C(F)(F)F)C4)nc3c2F)c2ccccc2c1 [P-0706, 1-(4-((1R,5S)-3,8-diazabicyclo[3.2.1]octan-3-yl)-8-fluoro-7-(3-hydroxynaphthalen-1-yl)quinazolin-2-yl)-3-(trifluoromethyl)azetidin-3-ol] | 0.0001 to 10 µM | 100 to 1000 µM |
| CCc1c(F)ccc2[nH]cc(-c3ccc4c(N5C[C@H]6CC[C@@H](C5)N6)nc(OCC56CCCN5CCC6)nc4c3F)c12 [P-0709, 4-((1R,5S)-3,8-diazabicyclo[3.2.1]octan-3-yl)-7-(4-ethyl-5-fluoro-1H-indol-3-yl)-8-fluoro-2-((tetrahydro-1H-pyrrolizin-7a(5H)-yl)methoxy)quinazoline] | 0.0001 to 10 µM | 0.0001 to 10 µM |
| CCc1c(F)ccc2[nH]cc(-c3c(F)cc4c(N5C[C@H]6CC[C@@H](C5)N6)nc(OCC56CCCN5CCC6)nc4c3F)c12 [P-0710, 4-((1R,5S)-3,8-diazabicyclo[3.2.1]octan-3-yl)-7-(4-ethyl-5-fluoro-1H-indol-3-yl)-6,8-difluoro-2-((tetrahydro-1H-pyrrolizin-7a(5H)-yl)methoxy)quinazoline] | 0.0001 to 10 µM | 0.0001 to 10 µM |
| FC(F)(F)c1cccc2[nH]cc(-c3ccc4c(N5C[C@H]6CC[C@@H](C5)N6)nc(OCC56CCCN5CCC6)nc4c3)c12 [P-0711, 4-((1R,5S)-3,8-diazabicyclo[3.2.1]octan-3-yl)-2-((tetrahydro-1H-pyrrolizin-7a(5H)-yl)methoxy)-7-(4-(trifluoromethyl)-1H-indol-3-yl)quinazoline] | 0.0001 to 10 µM | 0.0001 to 10 µM |
